Source: US20230077362A1 (CORTEVA AGRISCIENCE LLC, priority 2019, published 2023)

Assays:
[1] = test system: Beet Armyworm (Spodoptera exigua) ("BAW"), second instar larvae; assay: Bioassay on beet armyworm (BAW), 128-well diet tray assay; format: in vivo; details: Spodoptera exigua, read-out: BAW (Biological Results, rating)
Method: (§1) Certain molecules disclosed in this document were tested against BAW and CL using procedures described in the following examples. In the reporting of the results, the “BAW & CL Rating Table” was used (See Table Section).
(§2) Trays were covered with a clear self-adhesive cover and held at 25° C., 14:10 light-dark cycle for five to seven days. Percent mortality was recorded for the larvae in each well; activity in the eight wells was then averaged. The results are indicated in the table entitled “Table ABC: Biological Results” (See Table Section).

[2] = test system: Cabbage Looper (Trichoplusia ni) ("CL"), second instar larvae; assay: Bioassay on cabbage looper (CL), 128-well diet tray assay; format: in vivo; details: Trichoplusia ni, read-out: CL (Biological Results, rating)
Method: as §1, §2

Structure (SMILES)	pest or weed control at 50 µg/cm2 [1]	pest or weed control at 50 µg/cm2 [2]
COc1ccc(C(C)C)c(N2C(=O)CS/C2=N\C(=O)Nc2ccc(-c3ncn(-c4ccc(OC(F)(F)F)cc4)n3)c(C)c2)c1 [Compound J22, (Z)-1-(3-(2-Isopropyl-5-methoxyphenyl)-4-oxothiazolidin-2-ylidene)-3-(3-methyl-4-(1-(4-(trifluoromethoxy)phenyl)-1H-1,2,4-triazol-3-yl)phenyl)urea]	50 to 100%	50 to 100%
Cc1ccc(C(C)C)c(N2C(=O)CS/C2=N\C(=O)Nc2ccc(-c3ncn(-c4ccc(OC(F)(F)F)cc4)n3)c(C)c2)c1 [Compound J23, (Z)-1-(3-(2-Isopropyl-5-methylphenyl)-4-oxothiazolidin-2-ylidene)-3-(3-methyl-4-(1-(4-(trifluoromethoxy)phenyl)-1H-1,2,4-triazol-3-yl)phenyl)urea]	50 to 100%	50 to 100%
Cc1ccc(C(C)C)c(N2C(=O)CS/C2=N\C(=O)Nc2ccc(-c3ncn(-c4ccc(OC(F)(F)C(F)(F)F)cc4)n3)cc2C)c1 [Compound J24, (Z)-1-(3-(2-Isopropyl-5-methylphenyl)-4-oxothiazolidin-2-ylidene)-3-(2-methyl-4-(1-(4-(perfluoroethoxy)phenyl)-1H-1,2,4-triazol-3-yl)phenyl)urea]	50 to 100%	50 to 100%
COc1ccc(C(C)C)c(N2C(=O)CS/C2=N\C(=O)Nc2ccc(-c3ncn(-c4ccc(OC(F)(F)C(F)(F)F)cc4)n3)cc2C)c1 [Compound J25, (Z)-1-(3-(2-Isopropyl-5-methoxyphenyl)-4-oxothiazolidin-2-ylidene)-3-(2-methyl-4-(1-(4-(perfluoroethoxy)phenyl)-1H-1,2,4-triazol-3-yl)phenyl)urea]	50 to 100%	50 to 100%
Cc1ccc(C(C)C)c(N2C(=O)CS/C2=N\C(=O)Nc2ccc(-c3ncn(-c4ccc(OC(F)(F)C(F)(F)F)cc4)n3)cc2F)c1 [Compound J26, (Z)-1-(2-Fluoro-4-(1-(4-(perfluoroethoxy)phenyl)-1H-1,2,4-triazol-3-yl)phenyl)-3-(3-(2-isopropyl-5-methylphenyl)-4-oxothiazolidin-2-ylidene)urea]	50 to 100%	50 to 100%
COc1ccc(C(C)C)c(N2C(=O)CS/C2=N\C(=O)Nc2ccc(-c3ncn(-c4ccc(OC(F)(F)C(F)(F)F)cc4)n3)cc2F)c1 [Compound J27, (Z)-1-(2-Fluoro-4-(1-(4-(perfluoroethoxy)phenyl)-1H-1,2,4-triazol-3-yl)phenyl)-3-(3-(2-isopropyl-5-methoxyphenyl)-4-oxothiazolidin-2-ylidene)urea]	50 to 100%	50 to 100%
COc1cc(-c2ncn(-c3ccc(OC(F)(F)C(F)(F)F)cc3)n2)ccc1NC(=O)/N=C1\SCC(=O)N1c1cc(C)ccc1C(C)C [Compound J28, (Z)-1-(3-(2-Isopropyl-5-methylphenyl)-4-oxothiazolidin-2-ylidene)-3-(2-methoxy-4-(1-(4-(perfluoroethoxy)phenyl)-1H-1,2,4-triazol-3-yl)phenyl)urea]	50 to 100%	50 to 100%
COc1ccc(C(C)C)c(N2C(=O)CS/C2=N\C(=O)Nc2ccc(-c3ncn(-c4ccc(OC(F)(F)C(F)(F)F)cc4)n3)cc2OC)c1 [Compound J29, (Z)-1-(3-(2-Isopropyl-5-methoxyphenyl)-4-oxothiazolidin-2-ylidene)-3-(2-methoxy-4-(1-(4-(perfluoroethoxy)phenyl)-1H-1,2,4-triazol-3-yl)phenyl)urea]	50 to 100%	50 to 100%
Cc1ccc(C(F)(F)F)c(N2C(=O)CS/C2=N\C(=O)Nc2ccc(-c3ncn(-c4ccc(OC(F)(F)F)cc4)n3)cc2F)c1 [Compound J30, (Z)-1-(2-Fluoro-4-(1-(4-(trifluoromethoxy)phenyl)-1H-1,2,4-triazol-3-yl)phenyl)-3-(3-(5-methyl-2-(trifluoromethyl)phenyl)-4-oxothiazolidin-2-ylidene)urea]	50 to 100%	50 to 100%
Cc1ccc(OCC(F)(F)F)c(N2C(=O)CS/C2=N\C(=O)Nc2ccc(-c3ncn(-c4ccc(OC(F)(F)F)cc4)n3)cc2F)c1 [Compound J31, (Z)-1-(2-Fluoro-4-(1-(4-(trifluoromethoxy)phenyl)-1H-1,2,4-triazol-3-yl)phenyl)-3-(3-(5-methyl-2-(2,2,2-trifluoroethoxy)phenyl)-4-oxothiazolidin-2-ylidene)urea]	50 to 100%	50 to 100%
Cc1ccc(C(F)(F)F)c(N2C(=O)C(Cl)S/C2=N\C(=O)Nc2ccc(-c3ncn(-c4ccc(OC(F)(F)F)cc4)n3)cc2F)c1 (centres unmarked) [Compound J34, (Z)-1-(5-Chloro-3-(5-methyl-2-(trifluoromethyl)phenyl)-4-oxothiazolidin-2-ylidene)-3-(2-fluoro-4-(1-(4-(trifluoromethoxy)phenyl)-1H-1,2,4-triazol-3-yl)phenyl)urea]	50 to 100%	50 to 100%
Cc1ccc(OCCC(F)(F)F)c(N2C(=O)C(Cl)S/C2=N\C(=O)Nc2ccc(-c3ncn(-c4ccc(OC(F)(F)F)cc4)n3)cc2F)c1 (centres unmarked) [Compound J36, (Z)-1-(5-Chloro-3-(5-methyl-2-(3,3,3-trifluoropropoxy)phenyl)-4-oxothiazolidin-2-ylidene)-3-(2-fluoro-4-(1-(4-(trifluoromethoxy)phenyl)-1H-1,2,4-triazol-3-yl)phenyl)urea]	50 to 100%	50 to 100%
COc1ccc(C(C)C)c(N2C(=O)CS/C2=N\C(=O)Nc2ccc(-c3ncn(-c4ccc(OC(F)(F)F)cc4)n3)cc2Cl)c1 [Compound J37, (Z)-1-(2-Chloro-4-(1-(4-(trifluoromethoxy)phenyl)-1H-1,2,4-triazol-3-yl)phenyl)-3-(3-(2-isopropyl-5-methoxyphenyl)-4-oxothiazolidin-2-ylidene)urea]	50 to 100%	50 to 100%
Cc1ccc(C(C)C)c(N2C(=O)CS/C2=N\C(=O)Nc2ccc(-c3ncn(-c4ccc(OC(F)(F)F)cc4)n3)cc2Cl)c1 [Compound J38, (Z)-1-(2-Chloro-4-(1-(4-(trifluoromethoxy)phenyl)-1H-1,2,4-triazol-3-yl)phenyl)-3-(3-(2-isopropyl-5-methylphenyl)-4-oxothiazolidin-2-ylidene)urea]	50 to 100%	50 to 100%
Cc1ccc(C(F)(F)F)c(N2C(=O)CS/C2=N\C(=O)Nc2ccc(-c3ncn(-c4ccc(OC(F)(F)F)cc4)n3)cc2Cl)c1 [Compound J39, (Z)-1-(2-Chloro-4-(1-(4-(trifluoromethoxy)phenyl)-1H-1,2,4-triazol-3-yl)phenyl)-3-(3-(5-methyl-2-(trifluoromethyl)phenyl)-4-oxothiazolidin-2-ylidene)urea]	50 to 100%	50 to 100%
Cc1ccc(OCC(F)(F)F)c(N2C(=O)CS/C2=N\C(=O)Nc2ccc(-c3ncn(-c4ccc(OC(F)(F)F)cc4)n3)cc2Cl)c1 [Compound J40, (Z)-1-(2-Chloro-4-(1-(4-(trifluoromethoxy)phenyl)-1H-1,2,4-triazol-3-yl)phenyl)-3-(3-(5-methyl-2-(2,2,2-trifluoroethoxy)phenyl)-4-oxothiazolidin-2-ylidene)urea]	50 to 100%	50 to 100%
